Data on 11 molecules can be found in US10787425B2, “Thiazolidinedione derivative and use thereof” (INDUSTRY-ACADEMIC COOPERATION FOUNDATION CHOSUN UNIVERSITY, priority 2016, dated 2020).

SMILES strings stand for the structures.

Usually IC50 stands for the concentration needed to halve the response being measured. A lower IC50 goes with greater potency in that assay.

Sequence of 15-PGDH (P15428 whole entry): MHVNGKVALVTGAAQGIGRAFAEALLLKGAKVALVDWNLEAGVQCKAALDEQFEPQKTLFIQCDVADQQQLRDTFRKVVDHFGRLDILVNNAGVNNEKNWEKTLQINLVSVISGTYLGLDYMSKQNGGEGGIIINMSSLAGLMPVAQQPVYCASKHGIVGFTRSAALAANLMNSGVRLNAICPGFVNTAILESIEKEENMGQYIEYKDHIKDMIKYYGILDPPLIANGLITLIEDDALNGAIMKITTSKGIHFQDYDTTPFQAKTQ

One assay has as its target 15-PGDH (Homo sapiens (Human), UniProt P15428). The experiment in a line: 15-PGDH inhibitory activity (NADH at 340 nm). Type of assay: biochemical. The conditions noted are these: concentration inhibiting 50% of 15-PGDH activity; purified 15-PGDH, 21 μM PGE2, 0.25 mM NAD+. On the procedure: The 15-PGDH cDNA plasmid containing the BamHI of the pGEX-2T expression vector and EcoRI restriction enzyme sites was transfected into E. coli BL-21 LysS by using conventional methods used in the art. Then, the transfected cells were cultured in an LB medium (500 ml) containing 50 μg/ml of ampicillin at a temperature of 37° C. and at a rate of 220 rpm until the OD600 reached 0.6. Then, isopropyl beta-D-thiogalactoxide (1 mM) was added and the cells were further cultured at the temperature of 25° C. for 12 hours. The cells were then centrifuged at the gravity of 4,000 g for 30 minutes at a temperature of 4° C. to collect a cell pellet. The cell pellet was dissolved in 20 ml of cell lysis buffer (containing 1×PBS buffer (pH 7.4): 1 mM EDTA and 0.1 mM DTT) and sonicated at a temperature of 4° C. for 14×10 s. The digested cells were centrifuged at the gravity of 4,000 g for 20 minutes at a temperature of 4° C. The supernatant was then slowly loaded onto a glutathione-sepharose 4B column equilibrated at a temperature of 4° C. with cell lysis buffer [containing 1×PBS buffer (pH 7.4), 1 mM EDTA, and 0.1 mM DTT]. Washing was performed thereon by using a dissolution buffer until the OD280 reached 0.005 or less. Then, 15-PGDH was eluted from the glutathione-sepharose 4B column at room temperature for 5 minutes by using an elution buffer [containing 50 mM Tris-HCl (pH 8.0), 10 mM reduced glutathione, 1 mM EDTA, and 0.1 mM DTT). The concentration of the purified enzyme was measured, and the purification level thereof was confirmed by SDS-PAGE.
That is, the cells were treated with a solution including 50 mM Tris-HCl (pH 7.5), 0.1 mM DTT, 0.25 mM (NAD+), 10 μg of purified 15-PGDH enzyme, 21 μM PGE2. and various concentrations (0.0001 μM to 64 μM) of the derivative compound according to the present disclosure. In this case, the total volume of the solution was 2 ml. Then, the absorbance of the reaction mixture was recorded at the wavelength of 340 nm. To measure the activity of the derivative compounds according to the present disclosure, which is an inhibitor of 15-PGDH, the average value of NADH absorbance at 340 nm at various concentrations was obtained from a standard curve.
The molecule `CCOc1cc(/C=C2\SC(=O)NC2=O)ccc1OC(=O)CCc1ccccc1` [Compound 58, (Z)-4-((2,4-dioxothiazolidin-5-ylidene)methyl)-2-ethoxyphenyl 3-phenylpropanoate] yielded a concentration for half-maximal inhibition (IC50) of 94.3 nM.

`O=C1NC(=O)/C(=C/c2cccc(OC(=O)C3CC3)c2Cl)S1` [Compound 76, (Z)-2-chloro-3-((2,4-dioxothiazolidin-5-ylidene)methyl)phenyl cyclopropanecarboxylate] came in with an IC50 of 542 nM.

`O=C(CCCCc1ccccc1)Oc1ccc(/C=C2\SC(=O)NC2=O)cc1` [Compound 75, (Z)-4-((2,4-dioxothiazolidin-5-ylidene)methyl)phenyl 5-phenylpentanoate] had an IC50 of 92.1 nM.

In turn, `O=C1NC(=O)/C(=C/c2ccc(OC(=O)C3CCC3)c(Br)c2)S1` [Compound 17, (Z)-2-bromo-4-((2,4-dioxothiazolidin-5-ylidene)methyl)phenyl cyclobutanecarboxylate] registered an IC50 of 106 nM.

Consider `CCOc1cc(/C=C2\SC(=O)NC2=O)ccc1OC(=O)C1CCC1` [Compound 47, (Z)-4-((2,4-dioxothiazolidin-5-ylidene)methyl)-2-ethoxyphenyl cyclobutanecarboxylate], for which the IC50 was 1620 nM.

The molecule `O=C(O)c1ccccc1.O=C1NC(=O)/C(=C/c2ccc(OC(=O)c3ccccc3)c(Br)c2)S1` [Compound 26, (Z)-2-bromo-4-((2,4-dioxothiazolidin-5-ylidene)methyl)phenylbenzoate] registered a 50% inhibitory concentration (IC50) of 25.4 nM.

As to `O=C1NC(=O)/C(=C/c2ccc(OC(=O)C3CCCC3)c(Cl)c2)S1` [Compound 3, (Z)-2-chloro-4-((2,4-dioxothiazolidin-5-ylidene)methyl)phenyl cyclopentanecarboxylate], half-maximal inhibition (IC50) was put at 196 nM.

`O=C(CCC1CCCC1)Oc1ccc(/C=C2\SC(=O)NC2=O)cc1Br` [Compound 20, (Z)-2-bromo-4-((2,4-dioxothiazolidin-5-ylidene)methyl)phenyl 3-cyclopentylpropanoate]: 15.8 nM corresponded to half-maximal inhibition (IC50).

`COc1cc(/C=C2\SC(=O)NC2=O)ccc1OC(=O)C1CCCCC1` [Compound 36, (Z)-4-((2,4-dioxothiazolidin-5-ylidene)methyl)-2-methoxyphenyl cyclohexanecarboxylate] came in with an IC50 of 242 nM.

`CCOc1cc(/C=C2\SC(=O)NC2=O)ccc1OC(=O)CC1CCCC1` [Compound 49, (Z)-4-((2,4-dioxothiazolidin-5-ylidene)methyl)-2-ethoxyphenyl 2-cyclopentylacetate] came in with an IC50 of 128 nM. Against the preceding molecule, the IC50 is about 1.9-fold lower.

`O=C1NC(=O)/C(=C/c2ccc(OC(=O)C3CCC3)cc2Cl)S1` [Compound 92, (Z)-3-chloro-4-((2,4-dioxothiazolidin-5-ylidene)methyl)phenyl cyclobutanecarboxylate] returned an IC50 of 206 nM.

The subject of another assay is A549 cells. The experiment in a line: Measurement of PGE2 concentration in A549 cell medium (ELISA). In kind it is cell-based, human. The conditions noted are these: PGE2 concentration versus PBS control, 5 μM, 12 hours. On the procedure:
A549 cells were subcultured in RPMI 1640 medium (containing+8% fetal bovine serum (FBS) and antibiotic-antimycotic (AA)) for one week, and then, inoculated in a 6-well plate at 2.5×10^5 cells/mL (5×10^5 cells/well) and cultured for 24 hours in a 5% CO2 incubator at a temperature of 37° C. A549 cells are adenocarcinomic human alveolar basal epithelial cells which are derived from lung tissues. When cells were grown to about 80% confluence, a 15-PGDH inhibitor in 1×PBS buffer was injected at a concentration of 5 μM. To compare the results, the same amount of 1×PBS buffer was injected into a negative control, and, the treated cells were cultured in 5% CO2 incubator. After 12 hours, the medium was collected and the collected medium was assayed to measure PGE2 concentration by using an ELISA Kit (Abcam) according to the manufacturer's instructions. The concentration may be expressed as an exact value by plotting the calibration curve by using the absorbance value after diluting the standard in the medium by concentration.
(ELISA stands for enzyme-linked immunosorbent assay.)
With `CCOc1cc(/C=C2\SC(=O)NC2=O)ccc1OC(=O)CCc1ccccc1` [Compound 58, (Z)-4-((2,4-dioxothiazolidin-5-ylidene)methyl)-2-ethoxyphenyl 3-phenylpropanoate], the Increment % is listed as 7.97%.

Regarding `O=C1NC(=O)/C(=C/c2cccc(OC(=O)C3CC3)c2Cl)S1` [Compound 76, (Z)-2-chloro-3-((2,4-dioxothiazolidin-5-ylidene)methyl)phenyl cyclopropanecarboxylate], the Increment % is 3.34%.

`O=C(CCCCc1ccccc1)Oc1ccc(/C=C2\SC(=O)NC2=O)cc1` [Compound 75, (Z)-4-((2,4-dioxothiazolidin-5-ylidene)methyl)phenyl 5-phenylpentanoate]: the Increment % stood at 23.31%.

For the molecule `O=C1NC(=O)/C(=C/c2ccc(OC(=O)C3CCC3)c(Br)c2)S1` [Compound 17, (Z)-2-bromo-4-((2,4-dioxothiazolidin-5-ylidene)methyl)phenyl cyclobutanecarboxylate], the Increment % was determined as 56.34%.

For the molecule `CCOc1cc(/C=C2\SC(=O)NC2=O)ccc1OC(=O)C1CCC1` [Compound 47, (Z)-4-((2,4-dioxothiazolidin-5-ylidene)methyl)-2-ethoxyphenyl cyclobutanecarboxylate], the Increment % is listed as −32.43%.

As to `O=C(O)c1ccccc1.O=C1NC(=O)/C(=C/c2ccc(OC(=O)c3ccccc3)c(Br)c2)S1` [Compound 26, (Z)-2-bromo-4-((2,4-dioxothiazolidin-5-ylidene)methyl)phenylbenzoate], the Increment % is −11.12%.

As to `O=C1NC(=O)/C(=C/c2ccc(OC(=O)C3CCCC3)c(Cl)c2)S1` [Compound 3, (Z)-2-chloro-4-((2,4-dioxothiazolidin-5-ylidene)methyl)phenyl cyclopentanecarboxylate], the Increment % was −30.1%.

Regarding `O=C(CCC1CCCC1)Oc1ccc(/C=C2\SC(=O)NC2=O)cc1Br` [Compound 20, (Z)-2-bromo-4-((2,4-dioxothiazolidin-5-ylidene)methyl)phenyl 3-cyclopentylpropanoate], the Increment % was 227.32%.

On to `COc1cc(/C=C2\SC(=O)NC2=O)ccc1OC(=O)C1CCCCC1` [Compound 36, (Z)-4-((2,4-dioxothiazolidin-5-ylidene)methyl)-2-methoxyphenyl cyclohexanecarboxylate], for which the Increment % came out at 101.32%.

In the case of `CCOc1cc(/C=C2\SC(=O)NC2=O)ccc1OC(=O)CC1CCCC1` [Compound 49, (Z)-4-((2,4-dioxothiazolidin-5-ylidene)methyl)-2-ethoxyphenyl 2-cyclopentylacetate], the Increment % is recorded as 9.34%.

For `O=C1NC(=O)/C(=C/c2ccc(OC(=O)C3CCC3)cc2Cl)S1` [Compound 92, (Z)-3-chloro-4-((2,4-dioxothiazolidin-5-ylidene)methyl)phenyl cyclobutanecarboxylate], the Increment % was −57.6754%.

Still in this assay, the particulars now being: inhibitor 5 μM, medium collected after 12 hours, ELISA.
Regarding `CCOc1cc(/C=C2\SC(=O)NC2=O)ccc1OC(=O)CCc1ccccc1` [Compound 58, (Z)-4-((2,4-dioxothiazolidin-5-ylidene)methyl)-2-ethoxyphenyl 3-phenylpropanoate], the PGE2 concentration was 171.8161 pg/mL.

Turning to `O=C1NC(=O)/C(=C/c2cccc(OC(=O)C3CC3)c2Cl)S1` [Compound 76, (Z)-2-chloro-3-((2,4-dioxothiazolidin-5-ylidene)methyl)phenyl cyclopropanecarboxylate], the PGE2 concentration stood at 123.6726 pg/mL.

Turning to `O=C(CCCCc1ccccc1)Oc1ccc(/C=C2\SC(=O)NC2=O)cc1` [Compound 75, (Z)-4-((2,4-dioxothiazolidin-5-ylidene)methyl)phenyl 5-phenylpentanoate], the PGE2 concentration is 159.2841 pg/mL.

Regarding `O=C1NC(=O)/C(=C/c2ccc(OC(=O)C3CCC3)c(Br)c2)S1` [Compound 17, (Z)-2-bromo-4-((2,4-dioxothiazolidin-5-ylidene)methyl)phenyl cyclobutanecarboxylate], the PGE2 concentration was determined as 395.597 pg/mL.

Molecule `CCOc1cc(/C=C2\SC(=O)NC2=O)ccc1OC(=O)C1CCC1` [Compound 47, (Z)-4-((2,4-dioxothiazolidin-5-ylidene)methyl)-2-ethoxyphenyl cyclobutanecarboxylate] showed a PGE2 concentration of 185.1274 pg/mL.

Consider `O=C(O)c1ccccc1.O=C1NC(=O)/C(=C/c2ccc(OC(=O)c3ccccc3)c(Br)c2)S1` [Compound 26, (Z)-2-bromo-4-((2,4-dioxothiazolidin-5-ylidene)methyl)phenylbenzoate], for which the PGE2 concentration amounted to 175.2752 pg/mL.

Turning to `O=C1NC(=O)/C(=C/c2ccc(OC(=O)C3CCCC3)c(Cl)c2)S1` [Compound 3, (Z)-2-chloro-4-((2,4-dioxothiazolidin-5-ylidene)methyl)phenyl cyclopentanecarboxylate], the PGE2 concentration was found to be 191.3645 pg/mL.

With `O=C(CCC1CCCC1)Oc1ccc(/C=C2\SC(=O)NC2=O)cc1Br` [Compound 20, (Z)-2-bromo-4-((2,4-dioxothiazolidin-5-ylidene)methyl)phenyl 3-cyclopentylpropanoate], the PGE2 concentration worked out at 828.2384 pg/mL.

Molecule `COc1cc(/C=C2\SC(=O)NC2=O)ccc1OC(=O)C1CCCCC1` [Compound 36, (Z)-4-((2,4-dioxothiazolidin-5-ylidene)methyl)-2-methoxyphenyl cyclohexanecarboxylate] gave a PGE2 concentration of 408.196 pg/mL.

Molecule `CCOc1cc(/C=C2\SC(=O)NC2=O)ccc1OC(=O)CC1CCCC1` [Compound 49, (Z)-4-((2,4-dioxothiazolidin-5-ylidene)methyl)-2-ethoxyphenyl 2-cyclopentylacetate] had a PGE2 concentration of 299.5683 pg/mL.

Turning to `O=C1NC(=O)/C(=C/c2ccc(OC(=O)C3CCC3)cc2Cl)S1` [Compound 92, (Z)-3-chloro-4-((2,4-dioxothiazolidin-5-ylidene)methyl)phenyl cyclobutanecarboxylate], the PGE2 concentration is 47.26 pg/mL.
